Converted amounts (≈) assume the structure as drawn. “And” between values parts separate entries of the source, which are not always exact repeats. Equal entries are not always repeated.
Columns and labels:
[1] = Cytotoxicity against human Jurkat T cells without TCR stimulation assessed as cell viability by ATPlite assay
[2] = molecular target: Tyrosine-protein kinase Lck (Homo sapiens, UniProt P06239); test: Inhibition of LCK (unknown origin)
hERG (KCNH2) = hERG (KCNH2) (Homo sapiens, UniProt Q12809); test: Inhibition of human ERG at 10 uM by patch clamp assay relative to control
Hepatocyte = test: Cytotoxicity against hepatocytes (unknown origin)
[3] = molecular target: 5-hydroxytryptamine receptor 2A (Homo sapiens) (UniProt P28223); test: Binding affinity to human 5HT-2A receptor assessed as protein-compound complex at 10 uM relative to control
[4] = molecular target: D(1A) dopamine receptor (Homo sapiens) (UniProt P21728); test: Binding affinity to human dopamine D1 receptor assessed as protein-compound complex at 10 uM relative to control
[5] = molecular target: D(2) dopamine receptor (Homo sapiens) (UniProt P14416); test: Binding affinity to human dopamine D2S receptor assessed as protein-compound complex at 10 uM relative to control
[6] = molecular target: Sodium-dependent serotonin transporter (Homo sapiens) (UniProt P31645); test: Binding affinity to human 5-HT transporter assessed as protein-compound complex at 10 uM relative to control
Homo sapiens [7] = species: Homo sapiens; test: Binding affinity to L-type calcium channel verapamil binding site (unknown origin) assessed as protein-compound complex at 10 uM relative to control
physchem = details: aqueous phosphate buffer, pH 7.4, Kinetic_solubility
Description: Kinetic solubility of the compound in aqueous phosphate buffer at pH 7.4 after 24 hrs by HPLC/CLND method

[8] = 1-octanol-phosphate buffer partition coefficient, log D of the compound at pH 7.4 by UPLC/MS/MS analysis
[9] = Permeability in MDCK cells; format: ADME, cell-based, Canis lupus familiaris; details: dog, read-out: permeability
[10] = Plasma protein binding in human; format: ADME, cell-free; details: read-out: PPB (converted)
Mus musculus [11] = test: Reduction in serum IL-2 level in ip dosed C57/Bl6 mouse administered for 1 hr followed by anti-CD3 treatment measured after 1.5 hrs; format: functional, organism-based
Mus musculus [12] = test: Reduction in serum IL-2 level in C57/Bl6 mouse at 30 mg/kg, ip administered for 1 hr followed by anti-CD3 treatment measured after 1.5 hrs relative to vehicle-treated control; format: functional; parameters: scale not given: the % may be the effect or the level left; details: route intraperitoneal
Mus musculus [13] = test: Reduction in serum IL-2 level in C57/Bl6 mouse at 100 mg/kg, ip administered for 1 hr followed by anti-CD3 treatment measured after 1.5 hrs relative to vehicle-treated control; format: functional; parameters: scale not given: the % may be the effect or the level left; details: route intraperitoneal
Mus musculus [14] = test: Reduction in serum IL-2 level in C57/Bl6 mouse at 200 mg/kg, ip administered for 1 hr followed by anti-CD3 treatment measured after 1.5 hrs relative to vehicle-treated control; format: functional; details: route intraperitoneal
Mus musculus [15] = test: Reduction in serum IL-13 level in C57/Bl6 mouse at 30 mg/kg, ip administered for 1 hr followed by anti-CD3 treatment measured after 1.5 hrs relative to vehicle-treated control; format: functional; parameters: scale not given: the % may be the effect or the level left; details: route intraperitoneal
Mus musculus [16] = test: Reduction in serum IL-13 level in C57/Bl6 mouse at 100 mg/kg, ip administered for 1 hr followed by anti-CD3 treatment measured after 1.5 hrs relative to vehicle-treated control; format: functional; parameters: scale not given: the % may be the effect or the level left; details: route intraperitoneal
Mus musculus [17] = test: Reduction in serum IL-13 level in C57/Bl6 mouse at 200 mg/kg, ip administered for 1 hr followed by anti-CD3 treatment measured after 1.5 hrs relative to vehicle-treated control; format: functional; parameters: scale not given: the % may be the effect or the level left; details: route intraperitoneal
[18] = Plasma concentration in C57/Bl6 mouse at 200 mg/kg, ip administered for 1 hr followed by anti-CD3 treatment measured at 2.5 hrs; format: ADME, organism-based; parameters: dose 200 mg/kg, route intraperitoneal
Homo sapiens [19] = species: Homo sapiens; test: Selectivity ratio of Ki for LCK (unknown origin) to Ki for GST-tagged recombinant full length human ITK

Sequence of hERG (KCNH2) (Q12809 whole entry): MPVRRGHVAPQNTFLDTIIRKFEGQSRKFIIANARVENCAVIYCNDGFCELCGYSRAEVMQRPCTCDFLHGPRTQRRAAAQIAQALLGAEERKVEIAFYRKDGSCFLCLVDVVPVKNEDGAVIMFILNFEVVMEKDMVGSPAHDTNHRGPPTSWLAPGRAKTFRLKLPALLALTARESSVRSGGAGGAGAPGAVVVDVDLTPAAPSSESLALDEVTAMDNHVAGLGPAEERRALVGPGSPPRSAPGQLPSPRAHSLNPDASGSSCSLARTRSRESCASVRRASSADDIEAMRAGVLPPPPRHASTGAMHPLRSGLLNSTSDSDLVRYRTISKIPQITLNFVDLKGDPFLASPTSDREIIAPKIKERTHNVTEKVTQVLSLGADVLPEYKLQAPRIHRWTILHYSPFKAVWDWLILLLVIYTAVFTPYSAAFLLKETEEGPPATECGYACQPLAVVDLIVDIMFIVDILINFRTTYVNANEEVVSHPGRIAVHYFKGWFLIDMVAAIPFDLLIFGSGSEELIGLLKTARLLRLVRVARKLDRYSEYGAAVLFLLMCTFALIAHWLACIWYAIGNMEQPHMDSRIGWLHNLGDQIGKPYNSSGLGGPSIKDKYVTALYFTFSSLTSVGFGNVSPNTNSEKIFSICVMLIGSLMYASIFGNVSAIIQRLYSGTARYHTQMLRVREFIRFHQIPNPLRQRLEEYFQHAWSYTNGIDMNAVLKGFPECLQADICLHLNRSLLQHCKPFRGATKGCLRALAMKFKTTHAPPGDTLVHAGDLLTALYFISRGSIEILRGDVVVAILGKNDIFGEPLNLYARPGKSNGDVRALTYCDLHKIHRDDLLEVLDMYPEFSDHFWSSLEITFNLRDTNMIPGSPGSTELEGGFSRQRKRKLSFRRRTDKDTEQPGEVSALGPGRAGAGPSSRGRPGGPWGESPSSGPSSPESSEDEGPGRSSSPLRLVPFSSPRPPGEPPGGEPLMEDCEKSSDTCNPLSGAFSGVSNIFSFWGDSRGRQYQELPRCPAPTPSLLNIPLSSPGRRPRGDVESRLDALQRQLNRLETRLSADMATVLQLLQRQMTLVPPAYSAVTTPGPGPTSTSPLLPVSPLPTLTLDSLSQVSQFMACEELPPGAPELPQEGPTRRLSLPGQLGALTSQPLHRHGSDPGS
Sequence of Tyrosine-protein kinase Lck (P06239 whole entry): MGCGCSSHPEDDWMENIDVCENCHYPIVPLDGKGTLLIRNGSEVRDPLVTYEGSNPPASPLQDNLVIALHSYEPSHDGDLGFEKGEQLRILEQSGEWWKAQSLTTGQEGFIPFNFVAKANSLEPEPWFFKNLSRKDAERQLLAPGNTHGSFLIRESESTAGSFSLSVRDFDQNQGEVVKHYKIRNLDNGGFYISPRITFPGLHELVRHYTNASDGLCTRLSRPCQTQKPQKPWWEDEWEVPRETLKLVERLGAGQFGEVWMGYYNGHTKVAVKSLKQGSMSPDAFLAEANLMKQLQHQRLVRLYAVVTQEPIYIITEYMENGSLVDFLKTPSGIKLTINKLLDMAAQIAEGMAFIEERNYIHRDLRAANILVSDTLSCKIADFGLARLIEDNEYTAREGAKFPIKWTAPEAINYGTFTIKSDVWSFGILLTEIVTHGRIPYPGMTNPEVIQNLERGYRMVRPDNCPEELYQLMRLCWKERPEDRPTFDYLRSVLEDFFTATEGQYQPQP
Sequence of Sodium-dependent serotonin transporter (Homo sapiens) (P31645 whole entry, looked up): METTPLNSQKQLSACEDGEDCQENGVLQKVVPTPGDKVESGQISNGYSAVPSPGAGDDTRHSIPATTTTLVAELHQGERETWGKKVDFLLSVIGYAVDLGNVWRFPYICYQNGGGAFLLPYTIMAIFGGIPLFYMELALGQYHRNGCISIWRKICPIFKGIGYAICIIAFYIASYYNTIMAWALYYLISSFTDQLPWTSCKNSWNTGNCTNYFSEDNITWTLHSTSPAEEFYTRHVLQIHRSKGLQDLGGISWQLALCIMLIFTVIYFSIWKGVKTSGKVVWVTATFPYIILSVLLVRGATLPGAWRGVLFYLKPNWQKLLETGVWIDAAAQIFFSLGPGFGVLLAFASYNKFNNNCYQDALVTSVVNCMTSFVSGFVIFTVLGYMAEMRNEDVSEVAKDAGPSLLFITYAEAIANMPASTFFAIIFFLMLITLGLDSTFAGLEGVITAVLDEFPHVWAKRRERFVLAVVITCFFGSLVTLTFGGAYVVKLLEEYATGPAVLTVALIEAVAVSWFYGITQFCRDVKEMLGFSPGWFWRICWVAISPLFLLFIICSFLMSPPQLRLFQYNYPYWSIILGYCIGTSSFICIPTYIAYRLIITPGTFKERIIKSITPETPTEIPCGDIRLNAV
Sequence of D(1A) dopamine receptor (Homo sapiens) (P21728 whole entry): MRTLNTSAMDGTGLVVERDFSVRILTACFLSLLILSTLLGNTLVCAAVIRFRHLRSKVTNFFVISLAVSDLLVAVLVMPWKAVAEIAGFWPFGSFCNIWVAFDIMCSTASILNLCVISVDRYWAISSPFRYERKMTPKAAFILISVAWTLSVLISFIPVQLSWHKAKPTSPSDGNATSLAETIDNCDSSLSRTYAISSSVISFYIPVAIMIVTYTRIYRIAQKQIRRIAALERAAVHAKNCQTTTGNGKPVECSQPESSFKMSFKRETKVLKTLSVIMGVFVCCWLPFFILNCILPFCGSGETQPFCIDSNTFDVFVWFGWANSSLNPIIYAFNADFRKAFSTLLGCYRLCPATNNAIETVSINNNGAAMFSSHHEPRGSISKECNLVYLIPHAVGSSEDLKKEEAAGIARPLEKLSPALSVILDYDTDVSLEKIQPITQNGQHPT
Sequence of 5-hydroxytryptamine receptor 2A (Homo sapiens) (P28223 whole entry): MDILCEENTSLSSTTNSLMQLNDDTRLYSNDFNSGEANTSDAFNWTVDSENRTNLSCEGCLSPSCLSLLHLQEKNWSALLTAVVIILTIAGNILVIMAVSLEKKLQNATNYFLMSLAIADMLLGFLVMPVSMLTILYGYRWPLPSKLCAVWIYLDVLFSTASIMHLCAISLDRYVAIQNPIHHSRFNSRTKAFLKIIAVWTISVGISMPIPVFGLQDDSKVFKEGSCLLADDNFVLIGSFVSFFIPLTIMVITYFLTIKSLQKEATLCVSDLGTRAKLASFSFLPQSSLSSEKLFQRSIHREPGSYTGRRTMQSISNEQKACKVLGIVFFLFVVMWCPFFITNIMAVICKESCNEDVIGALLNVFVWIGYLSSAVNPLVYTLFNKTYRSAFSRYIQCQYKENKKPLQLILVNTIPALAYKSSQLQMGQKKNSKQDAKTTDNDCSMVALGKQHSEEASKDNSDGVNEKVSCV
Sequence of D(2) dopamine receptor (Homo sapiens) (P14416 whole entry): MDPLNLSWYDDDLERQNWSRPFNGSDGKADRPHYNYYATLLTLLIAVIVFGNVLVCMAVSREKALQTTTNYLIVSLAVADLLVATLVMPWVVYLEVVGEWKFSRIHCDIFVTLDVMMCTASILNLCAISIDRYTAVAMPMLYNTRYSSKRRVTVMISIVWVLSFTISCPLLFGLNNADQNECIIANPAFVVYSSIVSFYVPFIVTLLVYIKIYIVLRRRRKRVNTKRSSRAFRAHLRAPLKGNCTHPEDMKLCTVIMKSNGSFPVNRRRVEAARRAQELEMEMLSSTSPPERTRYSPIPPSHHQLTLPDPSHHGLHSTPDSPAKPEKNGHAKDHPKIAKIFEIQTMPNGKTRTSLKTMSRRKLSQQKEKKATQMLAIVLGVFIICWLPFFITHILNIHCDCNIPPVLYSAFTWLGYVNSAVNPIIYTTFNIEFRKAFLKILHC

| SMILES | Ki [2] [µM] | solubility kinetic at 24 h (physchem) [µM] | IC50 ([1]; Homo sapiens, Jurkat) [µM] | inhibition at 10 µM (hERG (KCNH2)) [%] | IC50 (Hepatocyte) [µM] | IC50 ([1]; jurkat) | other results |
| --- | --- | --- | --- | --- | --- | --- | --- |
| CN(C)CC[C@@H](c1ccccc1)n1cc(NC(=O)c2n[nH]c3c2CCC(C)(C)C3)cn1 | 0.34 |  | 4.7 | 88 | 6.2 |  | Activity [3]: 96%; Activity [4]: 96%; Activity [5]: 96%; Activity [6]: 102%; Activity (Homo sapiens [7]): 88% |
| CC12Cc3[nH]nc(C(=O)Nc4cnn(Cc5ccccc5)c4)c3CC1C2 (stereo unspecified) | 1.4 |  |  |  |  |  |  |
| CC1(C)CCc2c(C(=O)Nc3cnn([C@H](c4ccccc4)C4CCS(=O)(=O)C4)c3)n[nH]c2C1 (stereo partly specified) |  |  | 27 |  |  | > 50 µM |  |
| CC1(C)CCc2c(C(=O)Nc3cnn([C@H](c4ccccc4)C4CCCCS4(=O)=O)c3)n[nH]c2C1 (stereo partly specified) |  | 10 (≈ 4.82 µg/mL) | > 50 |  |  | 33 µM |  |
| CC1(C)CCc2c(C(=O)Nc3cnn([C@@H](CCS(C)(=O)=O)c4ccccc4)c3)n[nH]c2C1 | 1.8 |  | 57 |  |  |  | Ratio Ki (Homo sapiens [19]): 290 |

Now from value to compound, other results behind:

| Ki [2] [µM] | solubility kinetic at 24 h (physchem) [µM] | SMILES | IC50 ([1]; Homo sapiens, Jurkat) [µM] | inhibition at 10 µM (hERG (KCNH2)) [%] | IC50 (Hepatocyte) [µM] | IC50 ([1]; jurkat) | other results |
| --- | --- | --- | --- | --- | --- | --- | --- |
|  | 11 (≈ 5.3 µg/mL) | CC1(C)CCc2c(C(=O)Nc3cnn([C@H](c4ccccc4)C4CCCS(=O)(=O)C4)c3)n[nH]c2C1 (stereo partly specified) |  |  |  | 44 µM and 20 µM |  |
| 1.8 |  | CC1(C)CCc2c(C(=O)Nc3cnn(Cc4ccccc4)c3)n[nH]c2C1 |  |  |  |  |  |
| > 2.5 | 4.5 (≈ 1.99 µg/mL) | CC1(C)CCc2c(C(=O)Nc3cnn([C@@H](CS(C)(=O)=O)c4ccccc4)c3)n[nH]c2C1 | 42 |  |  |  |  |
|  | 3.9 (≈ 2.01 µg/mL) | C[C@@]12Cc3[nH]nc(C(=O)Nc4cnn([C@H](c5ccccc5)[C@H]5CCCCS5(=O)=O)c4)c3C[C@@H]1C2(F)F | 12 | 6.8 | > 100 |  | logD [8]: 2.8; Papp [9]: 1.5 ×10⁻⁶ cm/s; fraction unbound [10]: 0.03 |
|  | 45 (≈ 21 µg/mL) | CC1(C)CCc2c(C(=O)Nc3cnn([C@H](c4ccccc4)C4CC[S+]([O-])CC4)c3)n[nH]c2C1 (stereo partly specified) | 20 | 3.6 | 83 | 30 µM | logD [8]: 3.6; Papp [9]: 1.9 ×10⁻⁶ cm/s; fraction unbound [10]: 0.06; Activity (Mus musculus [11]): Dose-dependent effect; Activity (Mus musculus [12]): 55%; Activity (Mus musculus [13]): 90%; %max (Mus musculus [14]): 98%; Activity (Mus musculus [15]): 62%; Activity (Mus musculus [16]): 95%; Activity (Mus musculus [17]): 100%; concentration at 2.5 h [18]: 80 µM |
|  | 4.3 (≈ 2.07 µg/mL) | CC1(C)CCc2c(C(=O)Nc3cnn([C@H](c4ccccc4)C4CCS(=O)(=O)CC4)c3)n[nH]c2C1 | 29 |  |  |  |  |
|  | 6.5 (≈ 3.12 µg/mL) | C[C@@]12Cc3[nH]nc(C(=O)Nc4cnn([C@H](c5ccccc5)C5CCS(=O)(=O)CC5)c4)c3C[C@@H]1C2 | 29 | 34 | > 100 |  | logD [8]: 3.5; Papp [9]: 4.4 ×10⁻⁶ cm/s; fraction unbound [10]: 0.03 |

— ChEMBL document CHEMBL3425442, “Tetrahydroindazoles as Interleukin-2 Inducible T-Cell Kinase Inhibitors. Part II. Second-Generation Analogues with Enhanced Potency, Selectivity, and Pharmacodynamic Modulation in Vivo” (J Med Chem, 2015)
